Values quoted from earlier work as cited in article PMC3582496 (PLoS Biology, 2013).

Legend:
[1] = test system: CN
[2] = test system: CN; remark: listed apart in the source

| Compound | Km [1] [µM] | Vmax [1] [µmol/min/mg] | effect on rate of pNpp hydrolysis [2] |
| --- | --- | --- | --- |
| DLDVPIPGRFDRRVpSVCAE [RII phosphopeptide] | 26 | 1.7 | – |
| cyclosporin A [CSA] | – | – | rate increases |
| C=CC[C@@H]1/C=C(\C)C[C@H](C)C[C@H](OC)[C@H]2O[C@@](O)(C(=O)C(=O)N3CCCC[C@H]3C(=O)O[C@H](/C(C)=C/[C@@H]3CC[C@@H](O)[C@H](OC)C3)[C@H](C)[C@@H](O)CC1=O)[C@H](C)C[C@@H]2OC [FK506] | – | – | rate increases |
